One assay concerns the target Cbl-b (Homo sapiens (Human), UniProt Q13191). Put plainly: Cbl-b LCK Ub TR-FRET assay (Cbl-b Lck HTRF). To be noted: for (fold-selectivity): Cbl-b and C-Cbl selectivity, Lck HTRF; for IC50: read-out: Cbl-b Lck HTRF IC50. The assay is classed as biochemical. Here is the method:
(§1) Compounds were 3-fold serially diluted in DMSO in a 384-well polypropylene plate (#P-05525-BC; Labcyte) to generate a source plate with 10 concentrations of each compound, top concentration=2 mM. 80 nL of DMSO or compounds were transferred to each well of a black 384-well ProxiPlate (#6008260; PerkinElmer) using a Labcyte Echo. 1× assay buffer (50 mM HEPES pH7.0, 100 mM NaCl, 0.01% BSA, 0.01% Triton-X100, 1 mM DTT), 2× enzyme solution (16 nM Biotin-Cbl-b or 12 nM Biotin-c-Cbl in 1× assay buffer), 2× kinase mixture (120 nM His-LCK, 1 mM ATP, 10 mM MgCl2 in assay buffer) and 2.33× detection mixture (4.66× solution 1: 163 nM Anti-HA-D2 antibody (#610HADAB; PerkinElmer), 27.96 nM Streptavidin-EU (#AD0062; PerkinElmer), 1.398 mM EDTA in 1× assay buffer+4.66× solution 2: 2.796 μM UBE2D2/Methylated-HA-Ubiquitin thioester adduct (BostonBiochem) in 1× assay buffer) were prepared. 4 μL of 2× enzyme solution was added to each well containing compound, briefly centrifuged to mix, and incubated for 60 min at room temperature. 4 μL of 2× kinase mixture was added, briefly centrifuged to mix, and incubated for 90 min. at room temperature. 6 μL of detection mixture was added to all wells and briefly centrifuged before incubating for 20 min at room temperature. Plates were read for TR-FRET using an Envision at excitation 340 nm, emission at 615 and 665 nm, 4 flashes per well. IC50 was generated using no LCK as the low control and DMSO as the high control.
(§2) Cbl-b Lck HTRF data in Table 3 is measured according to Example 25 herein; C-cbl Lck HTRF data is measured according to Example 25 herein.
(§3) SPR and the LCK biochemical assay are orthogonal assays: SPR is a protein binding assay while the LCK assay is an enzyme activity assay. SPR measures compound binding affinity to CBL-B/C-CBL, whereas LCK assay measures compound inhibition of CBL-B/C-CBL ubiquitin transfer activity.
In general terms: TR-FRET usually uses a lanthanide donor and a delayed reading to cut background.

In the next assay the target is c-Cbl (Homo sapiens (Human), UniProt P22681). Put plainly: C-cbl LCK Ub TR-FRET assay (C-cbl Lck HTRF). It counts as biochemical. Here is the method: as §1, §2, §3

The text below walks through data of patent US20240300927A1, “AMIDES AS CBL-B INHIBITORS” (Genentech, Inc., priority 2021, published 2024).

c-Cbl, sequence (P22681 47-435): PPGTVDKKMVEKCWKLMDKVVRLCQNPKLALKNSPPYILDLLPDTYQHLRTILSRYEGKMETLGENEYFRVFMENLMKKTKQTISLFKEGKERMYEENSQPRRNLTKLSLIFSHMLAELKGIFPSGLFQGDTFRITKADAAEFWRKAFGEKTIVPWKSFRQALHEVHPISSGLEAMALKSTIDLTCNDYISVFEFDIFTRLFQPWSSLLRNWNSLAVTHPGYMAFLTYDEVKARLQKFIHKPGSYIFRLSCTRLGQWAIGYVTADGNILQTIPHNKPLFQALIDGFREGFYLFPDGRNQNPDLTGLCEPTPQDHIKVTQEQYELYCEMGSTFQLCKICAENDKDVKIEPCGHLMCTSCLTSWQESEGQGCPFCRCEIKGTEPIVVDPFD
Cbl-b, sequence (Q13191 40-426): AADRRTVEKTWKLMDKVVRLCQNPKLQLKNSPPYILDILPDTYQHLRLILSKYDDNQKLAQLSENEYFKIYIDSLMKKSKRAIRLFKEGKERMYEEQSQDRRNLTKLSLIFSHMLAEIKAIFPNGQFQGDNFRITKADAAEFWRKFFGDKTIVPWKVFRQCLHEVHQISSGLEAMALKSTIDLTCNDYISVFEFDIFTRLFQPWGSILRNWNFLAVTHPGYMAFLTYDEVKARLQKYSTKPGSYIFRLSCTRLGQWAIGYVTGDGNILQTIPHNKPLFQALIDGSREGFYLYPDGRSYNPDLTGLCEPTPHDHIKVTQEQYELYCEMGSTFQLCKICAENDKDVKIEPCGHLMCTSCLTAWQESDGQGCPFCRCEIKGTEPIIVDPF

`Cn1cnnc1[C@@H](F)C(C)(F)c1cccc(NC(=O)c2cc(CN3CC(C)(F)C3)nc(C3CC3)n2)c1` (stereo in doubt) [Compound 45, 2-cyclopropyl-N-(3-((1R,2S)-1,2-difluoro-1-(4-methyl-4H-1,2,4-triazol-3-yl)propan-2-yl)phenyl)-6-((3-fluoro-3-methylazetidin-1-yl)methyl)pyrimidine-4-carboxamide]: on Cbl-b, the “(fold-selectivity)” value is recorded as “(1.4x)” and the IC50 stood at 12000 nM. For the same compound, the IC50 against c-Cbl was found to be 16000 nM.

For `Cn1cnnc1[C@@H](F)C(C)(F)c1cccc(NC(=O)c2cc(CN3CC(C)(F)C3)nc(C3CC3)n2)c1` (stereo in doubt) [Compound 46, 2-cyclopropyl-N-(3-((1R,2R)-1,2-difluoro-1-(4-methyl-4H-1,2,4-triazol-3-yl)propan-2-yl)phenyl)-6-((3-fluoro-3-methylazetidin-1-yl)methyl)pyrimidine-4-carboxamide], the “(fold-selectivity)” value at Cbl-b was “(1.9x)”. The values for the IC50 on Cbl-b and against c-Cbl were 420 nM and 800 nM, respectively.

In the case of `C[C@@H](c1cc(C(=O)Nc2cccc(C3(Cc4nncn4C)COC3)c2)nc(C(F)(F)F)c1)N1CC(F)C1` [Compound 1, (S)-4-(1-(3-fluoroazetidin-1-yl)ethyl)-N-(3-(3-((4-methyl-4H-1,2,4-triazol-3-yl)methyl)oxetan-3-yl)phenyl)-6-(trifluoromethyl)picolinamide], the “(fold-selectivity)” value at Cbl-b is “(2.2x)”. The IC50 on Cbl-b worked out at 110 nM; against c-Cbl it was 250 nM.

As for `C[C@H](c1cc(C(=O)Nc2cccc(C3(Cc4nncn4C)COC3)c2)nc(C(F)(F)F)c1)N1CC(F)C1` [Compound 2, (R)-4-(1-(3-fluoroazetidin-1-yl)ethyl)-N-(3-(3-((4-methyl-4H-1,2,4-triazol-3-yl)methyl)oxetan-3-yl)phenyl)-6-(trifluoromethyl)picolinamide], on Cbl-b, the “(fold-selectivity)” value was “(1.7x)” and the IC50 amounted to 220 nM. At c-Cbl, this compound showed an IC50 of 370 nM.

With `C[C@@H](c1cc(C(=O)Nc2cccc(C3(Cc4nncn4C)COC3)c2)nc(C(F)(F)F)c1)N1CCC2(CC2)C1` [Compound 3, (S)-4-(1-(5-azaspiro[2.4]heptan-5-yl)ethyl)-N-(3-(3-((4-methyl-4H-1,2,4-triazol-3-yl)methyl)oxetan-3-yl)phenyl)-6-(trifluoromethyl)picolinamide], at Cbl-b, the “(fold-selectivity)” value is listed as “(1.9x)” and the IC50 was found to be 25 nM. Further, on c-Cbl, the IC50 is 47 nM.

`C[C@H](c1cc(C(=O)Nc2cccc(C3(Cc4nncn4C)COC3)c2)nc(C(F)(F)F)c1)N1CCC2(CC2)C1` [Compound 4, (R)-4-(1-(5-azaspiro[2.4]heptan-5-yl)ethyl)-N-(3-(3-((4-methyl-4H-1,2,4-triazol-3-yl)methyl)oxetan-3-yl)phenyl)-6-(trifluoromethyl)picolinamide]: on Cbl-b, the “(fold-selectivity)” value was “(1.9x)” and the IC50 is 67 nM. The compound also gave an IC50 at c-Cbl of 130 nM.

In the case of `Cn1cnnc1[C@H](F)C1(c2cccc(NC(=O)c3cc(CN4CCC5(CC5)C4)cc(C4CC4)n3)c2)COC1` [Compound 5, (R)-4-(5-azaspiro[2.4]heptan-5-ylmethyl)-6-cyclopropyl-N-(3-(3-(fluoro(4-methyl-4H-1,2,4-triazol-3-yl)methyl)oxetan-3-yl)phenyl)picolinamide], the “(fold-selectivity)” value on Cbl-b is recorded as “(1.6x)”. Moreover, the values for the IC50 at Cbl-b and against c-Cbl were 19 nM and 30 nM, respectively.

Consider `Cn1cnnc1[C@@H](F)C1(c2cccc(NC(=O)c3cc(CN4CCC5(CC5)C4)cc(C4CC4)n3)c2)COC1` [Compound 6, (S)-4-(5-azaspiro[2.4]heptan-5-ylmethyl)-6-cyclopropyl-N-(3-(3-(fluoro(4-methyl-4H-1,2,4-triazol-3-yl)methyl)oxetan-3-yl)phenyl)picolinamide], for which, at Cbl-b, the “(fold-selectivity)” value is given as “(1.7x)” and the IC50 was found to be 20 nM. For the same compound, at c-Cbl, half-maximal inhibition (IC50) was put at 33 nM.

For the compound `Cn1cnnc1[C@H](F)C1(c2cccc(NC(=O)c3cc(CN4CC(C)(F)C4)cc(C4CC4)n3)c2)COC1` [Compound 7, (R)-6-cyclopropyl-N-(3-(3-(fluoro(4-methyl-4H-1,2,4-triazol-3-yl)methyl)oxetan-3-yl)phenyl)-4-((3-fluoro-3-methylazetidin-1-yl)methyl)picolinamide], the “(fold-selectivity)” value on Cbl-b is “(1.8x)”. The values for the half-inhibitory concentration (IC50) at Cbl-b and against c-Cbl were 17 nM and 31 nM, respectively.

In the case of `Cn1cnnc1[C@@H](F)C1(c2cccc(NC(=O)c3cc(CN4CC(C)(F)C4)cc(C4CC4)n3)c2)COC1` [Compound 8, (S)-6-cyclopropyl-N-(3-(3-(fluoro(4-methyl-4H-1,2,4-triazol-3-yl)methyl)oxetan-3-yl)phenyl)-4-((3-fluoro-3-methylazetidin-1-yl)methyl)picolinamide], at Cbl-b, the “(fold-selectivity)” value is “(2.0x)” and the IC50 was found to be 30 nM. The compound also had an IC50 against c-Cbl of 60 nM.

Take `Cn1cnnc1CC1(c2cccc(NC(=O)c3cccc(C(F)(F)F)n3)c2)CC(F)(F)C1` [Compound 16, N-(3-(3,3-difluoro-1-((4-methyl-4H-1,2,4-triazol-3-yl)methyl)cyclobutyl)phenyl)-6-(trifluoromethyl)picolinamide]: at Cbl-b, the “(fold-selectivity)” value is “(1.6x)”. Moreover, the IC50 stood at 260 nM on Cbl-b and 410 nM against c-Cbl.

Regarding `Cn1cnnc1C[C@]1(c2cccc(NC(=O)c3cccc(C(F)(F)F)n3)c2)C[C@H](F)C1` [Compound 18, N-(3-((1R,3S)-3-fluoro-1-((4-methyl-4H-1,2,4-triazol-3-yl)methyl)cyclobutyl)phenyl)-6-(trifluoromethyl)picolinamide], at Cbl-b, the “(fold-selectivity)” value is on record as “(1.1x)” and the IC50 was 260 nM. At c-Cbl, this compound came in with an IC50 of 280 nM.

`Cn1cnnc1C[C@]1(c2cccc(NC(=O)c3cccc(C(F)(F)F)n3)c2)C[C@@H](F)C1` [Compound 19, N-(3-((1S,3R)-3-fluoro-1-((4-methyl-4H-1,2,4-triazol-3-yl)methyl)cyclobutyl)phenyl)-6-(trifluoromethyl)picolinamide]: the “(fold-selectivity)” value on Cbl-b is reported as “(2.1x)”. In addition, the values for the IC50 at Cbl-b and on c-Cbl were 280 nM and 570 nM, respectively.

With `Cn1cnnc1[C@H](F)C1(c2cccc(NC(=O)c3cc(CN4CC(C)(F)C4)nc(C4CC4)n3)c2)COC1` [Compound 20, (R)-2-cyclopropyl-N-(3-(3-(fluoro(4-methyl-4H-1,2,4-triazol-3-yl)methyl)oxetan-3-yl)phenyl)-6-((3-fluoro-3-methylazetidin-1-yl)methyl)pyrimidine-4-carboxamide], at Cbl-b, the “(fold-selectivity)” value was “(1.3x)” and the IC50 came out at 270 nM. This compound registered an IC50 on c-Cbl of 350 nM.

`Cn1cnnc1[C@@H](F)C1(c2cccc(NC(=O)c3cc(CN4CC(C)(F)C4)nc(C4CC4)n3)c2)COC1` [Compound 21, 2-cyclopropyl-6-[(3-fluoro-3-methyl-azetidin-1-yl)methyl]-N-[3-[3-[(S)-fluoro-(4-methyl-1,2,4-triazol-3-yl)methyl]oxetan-3-yl]phenyl]pyrimidine-4-carboxamide]: at Cbl-b, the “(fold-selectivity)” value was “(1.3x)” and the IC50 amounted to 510 nM. Also, at c-Cbl, 670 nM corresponded to half-maximal inhibition (IC50).

For `C[C@@H](c1cc(C(=O)Nc2cccc(C3([C@@H](F)c4nncn4C)COC3)c2)nc(C2CC2)c1)N1CCC2(CC2)C1` [Compound 22, 4-((S)-1-(5-azaspiro[2.4]heptan-5-yl)ethyl)-6-cyclopropyl-N-(3-(3-((R)-fluoro(4-methyl-4H-1,2,4-triazol-3-yl)methyl)oxetan-3-yl)phenyl)picolinamide], on Cbl-b, the “(fold-selectivity)” value is given as “(0.87x)” and the IC50 was 12 nM. Besides, 10 nM corresponded to half-maximal inhibition at c-Cbl (IC50).

`C[C@H](c1cc(C(=O)Nc2cccc(C3([C@@H](F)c4nncn4C)COC3)c2)nc(C2CC2)c1)N1CCC2(CC2)C1` [Compound 23, 4-((R)-1-(5-azaspiro[2.4]heptan-5-yl)ethyl)-6-cyclopropyl-N-(3-(3-((R)-fluoro(4-methyl-4H-1,2,4-triazol-3-yl)methyl)oxetan-3-yl)phenyl)picolinamide]: the “(fold-selectivity)” value on Cbl-b is “(0.94x)”. For the same compound, the concentration for half-maximal inhibition (IC50) at Cbl-b came to 50 nM; against c-Cbl, 47 nM.

As to `C[C@@H](c1cc(C(=O)Nc2cccc(C3([C@H](F)c4nncn4C)COC3)c2)nc(C2CC2)c1)N1CCC2(CC2)C1` [Compound 24, 4-((S)-1-(5-azaspiro[2.4]heptan-5-yl)ethyl)-6-cyclopropyl-N-(3-(3-((S)-fluoro(4-methyl-4H-1,2,4-triazol-3-yl)methyl)oxetan-3-yl)phenyl)picolinamide], at Cbl-b, the “(fold-selectivity)” value is listed as “(0.92x)” and the IC50 was found to be 63 nM. The compound further gave an IC50 on c-Cbl of 58 nM.

The term IC50 denotes the midpoint of a concentration-inhibition curve.
